Key:
[1] = Peripheral selectivity (Assay 4): free plasma versus free brain exposure after oral dosing; type: in vivo; conditions: fed male Sprague-Dawley rats, 0.5-24 hours post-dose, unbound fractions by equilibrium dialysis
Method: Fed male Sprague-Dawley rats (n=1/timepoint) were dosed orally with a test compound. Blood (via cardiocentesis), cerebrospinal fluid (CSF) (via cisternae magna) and brain were collected from an animal at 0.5, 1, 2, 4, 8 and 24 hours post-dose. Total plasma, CSF and brain concentrations were determined by LC-MS/MS. The pharmacokinetic parameters were assessed by non-compartmental methods using WinNonlin (Version 5.3, Pharsight, Mountain View, Calif.). The unbound fraction in plasma and brain was determined by equilibrium dialysis. Free plasma and free brain concentrations were determined by multiplying the total concentration in plasma or brain by its respective unbound fraction. CSF was assumed to be unbound, due to the absence of protein. Peripheral selectivity was assessed by comparing the unbound exposures (Cmax and AUC) in free plasma versus CSF and/or free brain.

hSERT = molecular target: T1, hSERT (Homo sapiens, UniProt P31645); assay: hSERT neurotransmitter uptake assay; type: cell-based; conditions: serotonin reuptake inhibition, HEK293-hSERT cells; read-out: SERT pIC50 (converted)
T1 construct: expressed in transfected cells; host or cells: HEK293 (stably transfected, G418 selection)
T1 sequence (P31645 whole entry): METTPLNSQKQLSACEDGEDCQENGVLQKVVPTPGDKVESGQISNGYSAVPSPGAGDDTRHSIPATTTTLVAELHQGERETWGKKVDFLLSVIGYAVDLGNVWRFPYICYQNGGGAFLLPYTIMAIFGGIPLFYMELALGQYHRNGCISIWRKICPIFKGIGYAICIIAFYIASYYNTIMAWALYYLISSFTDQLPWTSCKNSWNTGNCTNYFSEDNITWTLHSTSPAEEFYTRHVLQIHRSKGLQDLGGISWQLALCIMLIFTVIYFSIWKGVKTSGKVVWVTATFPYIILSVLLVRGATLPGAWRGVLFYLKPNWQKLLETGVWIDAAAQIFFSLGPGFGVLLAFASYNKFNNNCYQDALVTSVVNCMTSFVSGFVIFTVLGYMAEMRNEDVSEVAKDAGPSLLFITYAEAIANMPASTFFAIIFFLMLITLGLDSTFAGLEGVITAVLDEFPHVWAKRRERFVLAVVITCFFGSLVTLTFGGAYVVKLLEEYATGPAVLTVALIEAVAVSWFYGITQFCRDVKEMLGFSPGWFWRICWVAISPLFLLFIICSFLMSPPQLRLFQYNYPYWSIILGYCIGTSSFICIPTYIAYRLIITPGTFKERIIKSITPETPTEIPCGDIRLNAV
Method: Neurotransmitter uptake assays were used to measure inhibition of ^3H-serotonin (^3H-5-HT) uptake into cells expressing hSERT in order to determine the pIC50 values of test compounds at the transporter, similar to the procedures described in Tsuruda et al. (2010) Journal of Pharmacological and Toxicological Methods 61(2):192-204.
HEK293 cells stably-transfected with human recombinant SERT (HEK293-hSERT) were grown in DMEM medium supplemented with 10% dialyzed fetal bovine serum, 100 μg/ml penicillin, 100 μg/ml streptomycin, 2 mM L-glutamine, and 250 μg/ml of the aminoglycoside antibiotic G418. Cells were incubated in a 5% CO2, humidified incubator at 37° C.
The neurotransmitter uptake assay was performed in a 96-well assay plate in a total volume of 100 μL assay buffer containing HEK293-hSERT cells (7500-10,000 cells/well; plated ˜2 hours prior to assay initiation. Neurotransmitter Transporter Uptake Assay dye (0.5 μM), and eleven different concentrations of compound ranging from 10 μM to […] was used. Non-specific uptake was determined in the presence of indatraline (2.5 μM). The final assay buffer was 12.5 mM Tris-HCl, 5 mM HEPES, 3 mM NaHCO3, 0.3 mM KH2PO4, 0.25 mM Na2HPO4, 130 mM NaCl, 5 mM KCl, 1 mM CaCl2, 0.4 mM MgCl2, 0.3 mM MgSO4, 4 mM D-glucose, 0.025% BSA, 0.1 mM ascorbic acid, pH 7.4.
In pre-incubation studies, test compound was added to cells for 30 minutes at 37° C. prior to the addition of fluorescent substrate. For determination of inhibitory potency, a 10-30 minute endpoint substrate accumulation was determined by fluorescence spectroscopy using a Safire (Tecan Group Ltd., Minnendorf, Switzerland) and analysis was performed as described in Tsuruda et al., supra. For real-time measurements, compounds were either preincubated (as above) or mixed with substrate prior to addition, and kinetic measurements, relative fluorescence units (RFU integrated over 0.5 ms), were made using a cycle time of 1 min.

Free plasma AUC/Free brain AUC [1] | IC50 (hSERT) | SMILES
>10 | ≤ 100 nM | CS(=O)(=O)C[C@H](Oc1ccc([N+](=O)[O-])cc1)[C@@H]1CCNC1 [Example 2-8, (R)-3-[(R)-2-Methanesulfonyl-1-(4-nitro-phenoxy)ethyl]pyrrolidine]
>70 | ≤ 10 nM | CS(=O)(=O)C[C@@H](Oc1ccc(C(F)(F)F)cc1)[C@H]1CCNC1 [Example 1, (S)-3-[(S)-2-Methanesulfonyl-1-(4-trifluoromethylphenoxy)ethyl]pyrrolidine]
>20 | ≤ 100 nM | CS(=O)(=O)C[C@@H](Oc1ccc(C(F)(F)F)cn1)[C@@H]1CCNC1 [Example 3]
>20 | ≤ 100 nM | CS(=O)(=O)C[C@@H](Oc1ccc([N+](=O)[O-])cc1)[C@@H]1CCNC1 [Example 2-7, (R)-3-[(S)-2-Methanesulfonyl-1-(4-nitro-phenoxy)ethyl]pyrrolidine]
– | ≤ 10 nM | Cc1cc(Cl)ccc1O[C@@H](CS(C)(=O)=O)[C@H]1CCNC1 [Example 2-28, (S)-3-[(R)-1-(4-Chloro-2-methylphenoxy)-2-methanesulfonylethyl]pyrrolidine]
